According to publication PMC6832230, “Anti-Inflammatory Activity of Some Characteristic Constituents from the Vine Stems of Spatholobus suberectus” (Molecules, 2019):
Entries after “also recorded” stand apart in the source; their conditions may differ. Like-named read-outs stand apart in the source and are kept apart here.

Assays:
[1] = test system: nitric oxide (NO) production in RAW264.7 macrophages stimulated by lipopolysaccharide; test: NO inhibition assay (Griess method) in LPS-stimulated RAW264.7 cells; format: cell-based; conditions: for IC50: read-out: IC50 of inhibition of NO production; for SI (selectivity index): calculated from CC50 and IC50
Text: As a kind of pro-inflammatory mediator, NO plays a complex role and participates in many different kinds of inflammatory reactions, the level of which usually varies to different pathological degrees. The isolated novel compounds and 10 known ones in this research were chosen to evaluate the activity of inhibiting NO released by RAW264.7 cells after being stimulated by LPS.
The Griess method is generally used for determining NO concentration in anti-inflammatory experiments. The supernatant removed from the 96-well plates mentioned in Section 3.3.1 was interacted with Griess reagent (100 μL), and the absorbance was measured at 540 nm after 15 min. Two drugs, L-NIL and IND, were used as positive controls for comparative analysis in the test.
(§1) The IC50 values for NO inhibitory effects were calculated using SPSS v.20.0 (SPSS Inc., Chicago, IL, USA) and results were given as means ± SD. The mRNA expression levels were compared using variance analysis with GraphPad Prism 7.0 (GraphPad Software Inc., San Diego, CA, USA), and results were expressed as means ± SEM. All tests were carried out in triplicate.

[2] = test system: IL-1β mRNA; test: qPCR assay of IL-1β mRNA expression in LPS-stimulated RAW264.7 cells; format: cell-based; conditions: 24 h
Description: (§2) The RAW264.7 cells were seeded in 12-well plates at 3 × 10^4 cells/well; after being stimulated by LPS (1.0 μg/mL) and treated with two different concentrations of compounds for 24 h, the total RNA was extracted from the cells with Trizol reagent (Invitrogen, Thermo Fisher Scientific Inc., Waltham, MA, USA). After measuring the concentration, 1 μg of total RNA was used to obtain complementary DNA (cDNA) with a qRT super mix (Bimake Co., Ltd., Houston, SD, USA). The amplification of cDNA was carried out on a Quantitative RT-PCR system (Agilent Technologies, Stratagene, Inc., Santa Clara, CA, USA) using SYBR green qPCR master mix (Bimake Co., Ltd., Houston, SD, USA). The thermal cycling conditions were as follows: 95 °C for 10 min, 40 cycles of 95 °C for 30 s, 55 °C for 1 min, and 72 °C for 1 min, followed by 95 °C for 1 min, 55 °C for 30 s, and 95 °C for 30 s.
as §1

[3] = test system: RAW 264.7 cells
Description: (§3) The toxicities of different concentrations of compounds to cells were evaluated using the MTT assay [32, 33]. Firstly, the RAW 264.7 cells were maintained in DMEM with 10% FBS at 37 °C in a humid atmosphere containing 5% CO2. Then, the cells were seeded in 96-well plates (3 × 10^4 cells/well) after being passaged three times at a 1:3 split ratio. […] After being cultured for 24 h, the supernatant (100 μL) was transferred out and MTT (5 mg/mL, 20 μL for each well) was added, and the mixed solvent of 0.012 M HCl, 5% i-PrOH, and 10% sodium dodecyl sulfate (100 μL) was added 4 h later. The absorbance value was measured at 492 nm by a Thermo Multiskan MK3 microplate reader (Thermo-Labsystem, Franklin, MA, USA).

[4] = test system: IL-6 mRNA; test: qPCR assay of IL-6 mRNA expression in LPS-stimulated RAW264.7 cells; format: cell-based; conditions: 24 h
Description: After measuring the concentration, 1 μg of total RNA was used to obtain complementary DNA (cDNA) with a qRT super mix (Bimake Co., Ltd., Houston, SD, USA). The amplification of cDNA was carried out on a Quantitative RT-PCR system (Agilent Technologies, Stratagene, Inc., Santa Clara, CA, USA) using SYBR green qPCR master mix (Bimake Co., Ltd., Houston, SD, USA). The thermal cycling conditions were as follows: 95 °C for 10 min, 40 cycles of 95 °C for 30 s, 55 °C for 1 min, and 72 °C for 1 min, followed by 95 °C for 1 min, 55 °C for 30 s, and 95 °C for 30 s. […] The mRNA expression levels were compared using variance analysis with GraphPad Prism 7.0 (GraphPad Software Inc., San Diego, CA, USA), and results were expressed as means ± SEM. All tests were carried out in triplicate.

[5] = test system: TNF-α mRNA; test: qPCR assay of TNF-α mRNA expression in LPS-stimulated RAW264.7 cells; format: cell-based; conditions: 24 h
Description: as §2, §1

[6] = test system: iNOS mRNA; test: qPCR assay of iNOS mRNA expression in LPS-stimulated RAW264.7 cells; format: cell-based; conditions: 24 h
Description: as §2, §1

[7] = test system: COX-2 mRNA; test: qPCR assay of COX-2 mRNA expression in LPS-stimulated RAW264.7 cells; format: cell-based; conditions: 24 h
Description: as §2, §1

[8] = Cytotoxicity assay (MTT); conditions: mouse
Description: as §3

[9] = RAW264.7 cells, LPS 1 μg/mL, 24 h, Griess, n = 3, mean ± SD
[10] = at 40 μM and 50 μM, LPS-stimulated RAW264.7 cells
[11] = at 5 μM and 10 μM, LPS-stimulated RAW264.7 cells
[12] = LPS 1.0 μg/mL, RAW264.7 cells, concentration not given
[13] = Mus musculus, RAW264.7, 24 h, RAW264.7 cells, LPS 1 μg/mL, 24 h, Griess, n = 3, mean ± SD
[14] = RAW 264.7 cells, CC50 (median cytotoxic concentration), RAW 264.7 cells, MTT, 24 h, n = 3, >200: CC50 could not be obtained, cell survival rate >98% at 200–6.25 μM
[15] = at 20 μM and 30 μM, vs LPS group, RAW264.7 cells

Row | Molecule | IC50 [1, 13] | SI (selectivity index) [1] | effect on mRNA expression of TNF-α [5, 12] | effect on mRNA expression of iNOS [6, 12] | effect on mRNA expression of COX-2 [7, 12] | CC50 at 24 h [8, 14] | further results
1 | 4,7,2′-trihydroxy-4′-methoxy-isoflavanol [Compound 3] |  |  |  |  |  |  | IC50 [1, 9]: 35.4 ± 2.92 µM; effect on mRNA expression of IL-1β [2, 10]: could inhibit; CC50 [3]: > 200 µM
2 | COC1=CC(=O)C=C(OC)C1=O [Compound 1, 2,6-dimethoxy-1,4-benzoquinone] |  | 4.61 | can reduce | can reduce | can reduce |  | inhibition of NO production compared with L-NIL (in words) ([1]; LPS-stimulated RAW264.7 cells): potent inhibition; IC50 ([1]; Mus musculus, RAW264.7, 24 h): 5.69 ± 0.28 µM; effect on mRNA expression of IL-6 [4, 11]: markedly reduced; effect on mRNA expression of IL-1β [2, 11]: markedly reduced; effect on mRNA expression of TNF-α [5, 11]: markedly reduced; effect on mRNA expression of iNOS [6, 11]: markedly reduced; effect on mRNA expression of COX-2 [7, 11]: markedly reduced; CC50 at 24 h ([8]; RAW 264.7 cells): 26.2 ± 1.26 µM
3 | COc1c(O)ccc2c1OC[C@H](c1cc3c(cc1O)OCO3)[C@H]2O [Compound 2, (3S,4R)-7,2′-dihydroxy-8-methoxy-4′,5′-methylenedioxy-isoflavan-4-ol] | 46.3 ± 5.83 µM | >4.32 |  |  |  | > 200 µM | 
4 | Oc1ccc2c(c1)OC[C@H](c1cc3c(cc1O)OCO3)[C@H]2O [Compound 4, (3S,4R)-7,2′-dihydroxy-4′,5′-methylenedioxy-isoflavan-4-ol] | 40.1 ± 6.94 µM | 7.50 |  |  |  | > 200 µM | effect on mRNA expression of IL-1β [2, 10]: could inhibit
5 | CCCCCC(=O)CCC(=O)OCCc1ccc(O)c(OC)c1 [Compound 5, Homovanillyl-4-oxo-nonanoate] | 45.9 ± 4.76 µM | >4.36 |  |  |  | > 200 µM | 
6 | COc1ccc(-c2cc3cc(O)c(O)cc3oc2=O)c(OC)c1OC [Compound 6, 3-(2′,3′,4′-trimethoxyphenyl)-6,7-dihydroxycoumarin] | 28.3 µM | 24.81 | can reduce | can reduce | can reduce | > 200 µM | IC50 [1, 9]: 28.3 ± 6.44 µM; effect on mRNA expression of IL-1β [2, 15]: reduced significantly; effect on mRNA expression of TNF-α [5, 15]: reduced significantly; effect on mRNA expression of iNOS [6, 15]: reduced significantly
7 | COc1ccc(-c2coc3cc([O-])ccc3c2=O)cc1.[Na+] [Compound 7, formononetin sodium] |  | 14.73 | negate the effect | negate the effect |  |  | IC50 [1, 9]: 22.8 ± 0.55 µM; effect on mRNA expression of IL-6 [4, 12]: negate the effect; effect on mRNA expression of IL-1β [2, 12]: negate the effect
8 | O=C1C[C@@H](c2ccc(O)cc2)Oc2cc(O)ccc21 [Compound 8, liquiritigenin] | 16.3 ± 4.45 µM | 19.25 | significantly downregulate |  |  | > 200 µM | 
9 | O=c1c(-c2ccc(O)cc2)coc2cc(O)cc(O)c12 [Compound 9, genistein] | 16.9 ± 3.39 µM | 210.84 | can reduce | can reduce | can reduce |  | effect on mRNA expression of TNF-α [5, 15]: strikingly downregulated; effect on mRNA expression of iNOS [6, 15]: strikingly downregulated; effect on mRNA expression of COX-2 [7, 15]: strikingly downregulated; CC50 at 24 h [8]: > 200 µM
10 | O=C(/C=C/c1ccc(O)cc1)c1ccc(O)cc1O [Compound 10, isoliquiritigenin] | 6.78 ± 0.59 µM | 19.68 | can reduce; also recorded: significantly downregulate | can reduce | can reduce | 133 ± 2.11 µM | 
11 | COc1ccc(-c2coc3cc(O)ccc3c2=O)cc1 [Compound 11, formononetin] | 21.1 ± 4.8 µM | 4.88 |  | notably downregulated | notably downregulated | 103 ± 9.56 µM | 
12 | CC(=N)NCCCC[C@H](N)C(=O)O [L-NIL, L-N^6-(1-iminoethyl)-lysine, reference compound] |  | >10.48 |  |  |  | > 200 µM | IC50 ([1]; Mus musculus, RAW264.7, 24 h): 19.1 ± 1.18 µM

Continued, in another order:

Row | IC50 [1, 13] | Molecule | SI (selectivity index) [1] | effect on mRNA expression of TNF-α [5, 12] | effect on mRNA expression of iNOS [6, 12] | effect on mRNA expression of COX-2 [7, 12] | CC50 at 24 h [8, 14] | further results
13 | 35.5 ± 2.69 µM | O=c1c(-c2ccc(O)cc2)coc2cc(O)ccc12 [Compound 12, daidzein] | 11.64 |  |  |  | > 200 µM | effect on mRNA expression of IL-6 [4, 12]: inhibition; effect on mRNA expression of IL-1β [2, 12]: inhibition
14 | 36.4 ± 2.47 µM | O=c1c(-c2ccc(O)cc2)coc2cc(O[C@@H]3O[C@H](CO)[C@@H](O)[C@H](O)[C@H]3O)cc(O)c12 [Compound 13, genistin] |  | could not inhibit | could not inhibit | could not inhibit | > 200 µM | effect on mRNA expression of IL-1β [2, 12]: declined sharply
15 | 123 ± 9.92 µM | COc1ccc(C2COc3cc(OC4OC(CO)C(O)C(O)C4O)ccc3C2O)c(O)c1 [Compound 14, (3S,4R)-4,2′-dihydroxy-4′-methoxy-isoflavanol-7-glucopyranoside] | 5.86 |  |  |  | > 200 µM | 
16 | > 200 µM | COc1ccc([C@@H]2COc3cc(O)ccc3C2)c(O[C@@H]2O[C@H](CO)[C@@H](O)[C@H](O)[C@H]2O)c1 [Compound 15, (3R)-vestitol-2′-O-β-D-glucopyranoside] | <1.98 |  |  |  | > 200 µM | 
17 | 55.4 ± 3.71 µM | COc1ccc2c(c1)c(CC(=O)O)c(C)n2C(=O)c1ccc(Cl)cc1 [IND, indomethacin, reference compound] | 11.43 |  |  |  | 633 ± 75.1 µM | 
